Measurements reported in patent publication US6911470B1, “Polyoxometalate compounds as antiviral agents” (priority 1988, dated 2005).
pEC50, pIC50: −log10 of the molar value. Several values for one entry are separate records, joined by “and”; a condition that tells them apart may be missing. Identical values can stand only once. Like-named read-outs stand apart in the source and are kept apart here.

Columns and labels:
HSV-1 = assay: Plaque reduction assay for herpes simplex viruses in Vero cells; format: cell-based, herpes simplex virus type 1; conditions: Table 2; read-out: EC-50 HSV-1
Description: (§1) Cell culture assays for heroes simplex viruses. Mycoplasma-free Vero cells, obtained from Flow Laboratory (McLean, Va.), were used for the plaque assays. The methodologies for the plaque reduction and cytotoxicity assays have been previously described (Schinazi et al, Antimicrob. Agents Chemother. 22, 499-507, 1982). Median-effect method. Dose-effect relationships were analyzed by the median-effect equation (Chou et al, Adv. Enz. Regul. 22, 27-55, 1984). The slope (m) and median effective and inhibitory concentration (EC50 and IC50) values were obtained by using a computer program developed by Chou and Chou (Chou et al, Elsevier-Biosoft, Elsevier Science Publishers, Cambridge, U.K., 1985).

Friend, Spleen (EY-10) = assay: UV/XC assay for murine retroviruses in SC-1 cells; format: cell-based, murine retrovirus; conditions: Table 2; read-out: EC-50 Friend, Spleen (EY-10)
Description: UV/XC Assay for Murine Retroviruses Cells. Mouse embryo fibroblasts (SC-1) and XC cells were obtained from the American Type Culture Collection, Rockville, Md. The XC cell line was derived from a transplantable tumor induced in newborn White-Weston rats by the intramuscular injection of the Prague strain of Rous sarcoma virus. […] The cells were maintained in Eagle's minimum essential medium with Hanks balanced salt solution, supplemented with penicillin (100 U/ml), streptomycin (100 μg/ml), sodium bicarbonate (24 mM), Hepes (25 mM), and either 2 (maintenance) or 10 (growth) percent inactivated newborn or fetal calf serum.
Virus quantitation by UV-XC assay. The XC test (Rowe et al, Virology 42, 1136-1139, 1970) is a plaque-type of assay which tests for the presence and titer of B- and N-tropic murine leukemia viruses. Because these viruses produce no overt signs of infection of SC-1 mouse cells, it is necessary to overlay the virus producing culture with an indicator cell line, XC. The number of syncytia that are produced is a direct measure of the virus titer in FFU.
Six-well plates were seeded with 1×10^5 SC-1 mouse cells on the first day. On the following day the medium was removed and the inoculum (0.2 ml) was added in medium containing polybrene (4 μg/ml). For determining the antiviral activity of the compounds in culture, the virus dilution selected produced in untreated cultures about 80 foci per well. After 1 hour, the virus was removed and various concentrations of the drug were added. The plates were replenished with medium on the third and fifth days. The medium was removed on the eighth day and the cells exposed to UV irradiation (60 erg/mm^2 per sec) for 30 seconds. Medium containing 10^6 XC cells was then added to each plate. On the eleventh day, the plates were fixed with 10% buffered Formalin and stained with crystal violet. Comparison of the number of foci to those found in virus-infected cells receiving no drug allowed determination of whether a drug at a particular concentration was effective. Control cells without virus but receiving the drug provided an estimate of the drug's toxic effects as quantitated by using trypan blue staining.

[1] = biological target: T1, HIV-1 reverse transcriptase (Human immunodeficiency virus type 1 group M subtype B, UniProt P04585); assay: Evaluation of compounds on purified retroviral RT (cell-free, virion-derived); format: biochemical; conditions: Table 2; read-out: EC-50 Cell-Free RT (virion-derived)
T1 construct: HIV-1 RT was isolated from detergent disrupted virions; made in house; host or cells: virions pelleted from culture fluid of HIV-1-infected PHA-stimulated human PBMC; DEAE-cellulose and phosphocellulose chromatography
Description: Evaluation of compounds on purified retroviral RT. HIV-1 RT was isolated from detergent disrupted virions obtained from the cell-free supernatant of infected PHA-stimulated PBMC. The enzyme was purified by passing the extract through ion-exchange chromatography columns, as described previously (Eriksson et al, Antimicrob. Agents Chemother. 31, 600-604, 1977. Briefly, 750 ml of culture fluid harvested from HIV-1-infected PBMC were ultracentrifuged to pellet the virus. The pellet was dissolved in buffer A [50 mM Tris-HCl, pH 7.9/0.25% Nonidet P-40/5 mM dithiothreitol/20% (vol/vol) glycerol] containing 1 mM EDTA, and freeze-thawed four times. After clarification by centrifugation, the enzyme was partially purified from the supernatant by passing the extract through a DEAE-cellulose column (Whatman DE-52; 2.6×15 cm) previously equilibrated with buffer B (50 mM Tris-Cl, pH 7.9, 50 mM KCl, 1 mM EDTA, 1 mM dithiothreitol, 20% glycerol). Elution was performed using a linear gradient 50-500 mM KCl in buffer B. Fractions containing enzyme activity were dialyzed against buffer B and were further purified on a phosphocellulose column (Whatman P-11) using a linear KCl (50-500 mM) gradient in buffer B. The peak fractions were pooled and dialyzed against buffer B. The enzyme was characterized as HIV-1 reverse transcriptase based on its cation, salt, pH, and template requirements according to previous descriptions (Eriksson et al, Antimicrob. Agents Chemother. 31, 600-604, 1977). The standard reaction mixture was used to evaluate the inhibitory effect of the drugs, as previously described (Eriksson et al, Antimicrob. Agents Chemother. 31, 600-604, 1977). Briefly, the reaction mixtures (final volume 100 μl) contained 100 mM Tris-HCl, pH 8.0, 50 mM KCl, 2 mM MgCl2, 5 mM DTT, 400 ug/ml bovine serum albumin, 3 μg/ml (rA)·(dT)12-18 and 1 μM of [^3H]TTP (specific activity 82.3 Ci/mmol). The reactions were started by the addition of 10 μl of partially purified RT, incubated at 37° C. for 60 min., and processed as previously described (Eriksson et al, Antimicrob. Agents Chemother. 31, 600-604, 1977).
Median-effect method. Dose-effect relationships were analyzed by the median-effect equation (Chou et al, Adv. Enz. Regul. 22, 27-55, 1984). The slope (m) and median effective and inhibitory concentration (EC50 and IC50) values were obtained by using a computer program developed by Chou and Chou (Chou et al, Elsevier-Biosoft, Elsevier Science Publishers, Cambridge, U.K., 1985).

human PBM cells = assay: Cytotoxicity assay on uninfected PHA stimulated human PBMC (trypan blue); format: cell-based
Description: Cells. […] PBS), and pelleted at 300×g for 10 minutes. […] Cytotoxicity assay. The drugs were evaluated for their potential toxic effects on uninfected PHA stimulated human PBMC. Flasks were seeded so that the final cell concentration was 2×10^5 cells/ml. The cells were cultured with and without drug for 6 days, at which time aliquots were counted for cell viability, as assessed by the trypan blue dye-exclusion method using a hemacytometer. The median inhibitory concentration (IC50) was calculated using the median effect method (Chou et al, Elsevier-Biosoft, Elsevier Science Publishers, Cambridge, U.K., 1985; Chou et al, Adv. Enz. Regul. 22, 27-55, 1984). Median-effect method. Dose-effect relationships were analyzed by the median-effect equation (Chou et al, Adv. Enz. Regul. 22, 27-55, 1984). The slope (m) and median effective and inhibitory concentration (EC50 and IC50) values were obtained by using a computer program developed by Chou and Chou (Chou et al, Elsevier-Biosoft, Elsevier Science Publishers, Cambridge, U.K., 1985).

HSV-2 = assay: Plaque reduction assay for herpes simplex viruses in Vero cells; format: cell-based, herpes simplex virus type 2; conditions: Table 2; read-out: EC-50 HSV-2
Description: as §1

Vero cells = assay: Cytotoxicity assay in Vero cells; format: cell-based; conditions: Table 2; >100 μM = Nontoxic; read-out: IC50 Toxicity Vero Cells
Description: Cell culture assays for heroes simplex viruses. Mycoplasma-free Vero cells, obtained from Flow Laboratory (McLean, Va.), were used for the plaque assays. The methodologies for the plaque reduction and cytotoxicity assays have been previously described (Schinazi et al, Antimicrob. Agents Chemother. 22, 499-507, 1982).

HIV-1 (strain LAV-1) = assay: microbe, parasite or virus in culture; format: cell-based
Description: Cells. Human peripheral blood mononuclear cells (PBMC) from healthy HIV-1 seronegative and hepatitis B virus seronegative donors were isolated by Ficoll-Hypaque discontinuous gradient centrifugation at 1,000×g for 30 minutes, washed twice in phosphate-buffered saline (pH 7.2; PBS), and pelleted at 300×g for 10 minutes. Before infection, the cells were stimulated by phytohemagglutinin (PHA) at a concentration of 6 μg/ml for three days in RPMI 1640 medium supplemented with 15% heat-inactivated fetal calf serum, 1.5 mM L-glutamine, penicillin (100 U/ml), streptomycin (100 μg/ml), and 4mM sodium bicarbonate buffer.
Viruses. HIV-1 (strain LAV-1) was obtained from Dr. P. Feorino (Centers for Disease Control, Atlanta, Ga.). The virus was propagated in human PBMC using RPMI 1640 medium, as described previously (McDougal et al, J. Immun. Meth. 76, 171-183, 1985) without PHA and supplemented with 7% v/v interleukin-2 (Advanced Biotechnologies, Silver Spring, Md.), 7 μg/ml DEAE-dextran (Pharmacia, Uppsala, Sweden), and 370 U/ml anti-human leucocyte (alpha) interferon (ICN, Lisle, Ill.). Virus obtained from cell-free culture supernatant was titrated and stored in aliquots at −80° C. until use.
Inhibition of virus replication in human PBMC. Uninfected PHA-stimulated human PBMC were uniformly distributed among 25 cm^2 flasks to give a 5 ml suspension containing about 2×10^6 cells/ml. Suitable dilutions of virus were added to infect the cultures. The mean reverse transcriptase (RT) activity of the inocula was 50,000 decompositions per min/ml corresponding to about 100 TCID50, as determined by Groopman et al. (Groopman et al, AIDS Res. Human Retro. 3, 71-85, 1987. The drugs at twice their final concentrations in 5 ml of RPMI 1640 medium, supplemented as described above, were added to the cultures. Uninfected and untreated PBMC at equivalent cell densities were grown in parallel as controls. The cultures were maintained in a humidified 5% CO2-95% air incubator at 37° C. for six days after infection, at which point all cultures were sampled for supernatant reverse transcriptase (RT) activity.
RT activity assay. Six ml supernatant from each culture was clarified from cells at 300×g for 10 minutes. Virus particles were pelleted from 5 ml samples at 40,000 rpm for 30 minutes using a Beckman 70.1 Ti rotor and suspended in 200 μl of virus disrupting buffer (50 mM Tris-Cl, pH 7.8, 800 mM NaCl, 20% glycerol, 0.5 mM phenylmethyl sulfonyl fluoride, and 0.5% Triton X-100).
The RT assay was performed in 96-well microtiter plates, as described by Spira et al. (Spira et al, J. Clin. Microbiol. 22, 97-99, 1987). The reaction mixture, which contained 50 mM Tris-Cl pH 7.8, 9 mM MgCl2, 5 mM dithiothreitol (DTT), 4.7 μg/ml (rA)n. (dT)12-18, 140 μM dATP, and 0.22 μM [^3H]TTP, specific activity 78.0 Ci/mmol, equivalent to 17,300 cpm/pmol; NEN Research Products, Boston, Mass., was added to each well. The sample (20 μl) was added to the reaction mixture which was then incubated at 37° C. for 2 hours. The reaction was terminated by the addition of 100 μl 10% trichloroacetic acid (TCA) containing 0.45 mM sodium pyrophosphate. The acid-insoluble nucleic acids which precipitated were collected on glass filters using a Skatron semi-automatic harvester. The filters were washed with 5% TCA and 70% ethanol, dried, and placed in scintillation vials. Four ml of scintillation fluid (Econofluor, NEN Research Products, Boston, Mass.) were added and the amount of radioactivity in each sample was determined using a Packard Tri-Carb liquid scintillation analyzer (model 2,000CA). The results were expressed in dpm/ml of original clarified supernatant.
Median-effect method. Dose-effect relationships were analyzed by the median-effect equation (Chou et al, Adv. Enz. Regul. 22, 27-55, 1984).

[2] = Comparison of toxicity of polyoxometalate compounds in mice (mortality, haematology); format: in vivo; conditions: BID × 6, 60 mkd i.p.; for Mortality: dead/total
Description: Comparison of Toxicity of Polyoxometalate Compounds Mice.
In vivo antiviral experiments. […] Treatment was continued daily for 6 or 10 days.

[3] = Table 2, >100 μM = Nontoxic, read-out: IC50 Toxicity PBM Cells
[4] = Table 1, read-out: IC50 Toxicity in Human PBM Cells
[5] = Table 1, read-out: EC50 Anti-HIV-1 Activity in Human PBM Cells

Substance	pIC50 (human PBM cells; [4])	pEC50 (HIV-1 (strain LAV-1); [5])	also measured
(HisH^+)p(H^+)4-pST, where p=1-4 [(HISH^+)nH^+(4−n)ST]	–	–	pEC50 (HSV-1): 6.02; pEC50 (Friend, Spleen (EY-10)): 6.04; pEC50 [1]: 4.65; pIC50 (human PBM cells; [3]): 3.74; pEC50 (HSV-2): 6.06; pIC50 (Vero cells): < 4.00
K10Co4(H2O)2(PW9O34)2 [Formula 12]	4.36	6.10	–
H6ZnW12O40 [Formula 5]	4.92	6.05	–
(n-Bu4N)2W6O19 [Formula 15]	< 4.00	–	–
(NH4)5[BW12O40] [(NH4)5BT]	–	–	pEC50 (HSV-1): < 5.00; pEC50 [1]: 4.17; pEC50 (HIV-1 (strain LAV-1); Table 2, several values per cell, some in brackets, read-out: EC-50 HIV-1 (LAV-1)): 5.17 and 4.94; pEC50 (HSV-2): < 5.00; pIC50 (Vero cells): < 4.00; MDD ± St. Dev. (Mean day of death) [2]: 4.6 ± 0.89; Mortality [2]: 5/5 (100)
[(DMA)2H]3PMo12O40 [Formula 7]	< 4.00	< 4.00	–
K8SiW11O39 [Formula 9]	< 4.00	6.82	–
(NH4)14[NaP5W30O110] [Formula 17]	5.11	6.49	–
Na9HSiW9O34 [Formula 10]	< 4.00	5.62	–
K10Cu4(H2O)2(PW9O34)2 [Formula 11]	< 4.00	5.36	–
Na6H2W12O40 [Formula 6]	< 4.00	6.47	–
K4W4O10(O2)6 [Formula 21]	< 4.00	< 4.30	–
(ArgH^+)n(H^+)5-nBT, where n=1-5 [(ARGH^+)nH^+(5−n)BT]	–	–	pEC50 (HSV-1): 5.87; pEC50 [1]: 4.60; pIC50 (human PBM cells; [3]): 3.48; pEC50 (HSV-2): 5.50; pIC50 (Vero cells): < 4.00; MDD ± St. Dev. (Mean day of death) [2]: 8.8 ± 0.45; Mortality [2]: 5/5 (100)
Na7PW11O39 [Formula 8]	< 4.00	4.97	–
(n-Bu4N)2Mo6O19 [Formula 16]	< 4.00	< 4.00	–
α-(n-Bu4N)4Mo8O26 [Formula 20]	< 4.00	4.26	–
